This passage reports Time, Activity and IC50 results from ChEMBL document CHEMBL5053530, “Neopetrosidines A-D, pyridine alkaloids isolated from the marine sponge Neopetrosia chaliniformis and their cell cycle elongation activity” (Bioorg Med Chem, 2021).

Experiment [1] in a line: Induction of cell cycle duration in human HeLa/Fucci2 cells assessed as increase in S/G2/M phase duration at 5 uM measured every 20 mins for 96 hrs by time-lapse imaging analysis (reference value: 7.1 +/- 0.7 hrs). In kind it is functional.
For experiment [2], the system named is HeLa/Fucci2. Briefly: Antiproliferative activity against human HeLa/Fucci2 cells assessed as reduction in cell viability incubated for 48 hrs under glucose-limiting condition by LDH assay. In kind it is functional, cell-based.
Experiment [3] has as its system HeLa/Fucci2. Briefly: Cytotoxicity against human HeLa/Fucci2 cells assessed as reduction in cell growth measured after 3 days by MTT assay. In kind it is functional, cell-based. Conditions: HeLa/Fucci2, 72 h. (In general: Tetrazolium assays rely on reduction of a dye to a coloured formazan, in cell work by metabolically active cells.)
The subject of experiment [4] is HeLa. The experiment can be described thus: Induction of mitochondria membrane potential loss in human HeLa cells at 5 uM measured after 1 hr by JC1 dye based fluorescence microscopic analysis. It is filed as functional, cell-based.
Experiment [5] relates to HeLa/Fucci2. Briefly: Induction of cell cycle duration in human HeLa/Fucci2 cells assessed as increase in G1/S phase duration measured every 20 mins for 96 hrs by time-lapse imaging analysis. In kind it is functional, cell-based. Conditions: dose 1.25-10 µM.
In experiment [6] the test system is HeLa/Fucci2. Briefly: Antiproliferative activity against human HeLa/Fucci2 cells reduction in cellular ATP production incubated for 4 hrs by CellTiter-Glo cell viability assay. In kind it is functional, cell-based. Conditions: dose 1.3-5 µM. On the technique in general: In ATP-based viability assays light output follows the ATP content of the culture.
The nature of experiment [7]: Effect on glycolysis in human HeLa/Fucci2 cells assessed as increase in lactate production per ug protein at 5 uM incubated for 24 hrs by LDH Assay (reference value: 19.6 +/- 6.2 nmol). It is filed as functional.
Experiment [8] relates to HeLa/Fucci2. The experiment can be described thus: Induction of cell cycle duration in human HeLa/Fucci2 cells assessed as increase in S/G2/M phase duration measured every 20 mins for 96 hrs by time-lapse imaging analysis. It is filed as functional, cell-based. Conditions: dose […].
Experiment [9] concerns HeLa/Fucci2. The experiment can be described thus: Induction of cell cycle duration in human HeLa/Fucci2 cells assessed as increase in G1 phase duration measured every 20 mins for 96 hrs by time-lapse imaging analysis. It is filed as functional, cell-based. Conditions: dose 1.25-10 µM.
The nature of experiment [10]: Induction of cell cycle duration in human HeLa/Fucci2 cells assessed as increase in G1/S phase duration at 5 uM measured every 20 mins for 96 hrs by time-lapse imaging analysis (reference value: 4.8 +/- 0.3 hrs). It is filed as functional.
The nature of experiment [11]: Induction of cell cycle duration in human HeLa/Fucci2 cells assessed as increase in G1 phase duration at 5 uM measured every 20 mins for 96 hrs by time-lapse imaging analysis (reference value: 5 +/- 0.8 hrs). It is filed as functional.
Experiment [12] is described as follows: Effect on glycolysis in human HeLa/Fucci2 cells assessed as increase in lactate production per ug protein at 0.1 uM incubated for 24 hrs by LDH Assay (reference value: 19.6 +/- 6.2 nmol). In kind it is functional.

Structures are written as SMILES. Activity calls are given as the source filed them. No cut-off for these calls is given here.

`C1=C\CCCCCC[n+]2cccc(c2)CCCCCCCCCCCCCC[n+]2cccc(c2)CCCCCC/1.O=C[O-].O=C[O-]`: the results for the Time in experiment [1], in experiment [10] and in experiment [11] were 14.7 h, 9.3 h and 12 h, respectively. For the same compound, the result in experiment [2] and in [4] was Active. Also, in [3], the IC50 (as a rule, the point on the concentration scale where inhibition reaches its midpoint) stood at 1200 nM. The Activity entry in experiment [5] is “Dose-dependent effect”; in experiment [6], “Dose-dependent effect”; in experiment [7], 27.9 nmol; in experiment [8] it was “Dose-dependent effect”; in experiment [9], “Dose-dependent effect”.
`C1=C\CCCCCC[n+]2cccc(c2)CCCCCC/C=C\CCCCCC[n+]2cccc(c2)CCCCCCCC/1`: in experiment [3], the IC50 came to 2600 nM.
On the same count and under the same terms, the value for `C1=C\CCCCCCc2ccc[n+](c2)CCCCCC/C=C\CCCCCCc2ccc[n+](c2)CCCCCCCC/1` was 2600 nM.
As to `C=C(C)[C@H]1Cc2c(ccc3c2O[C@@H]2COc4cc(OC)c(OC)cc4[C@@H]2C3=O)O1` [ROTENONE], the Activity in experiment [12] was 34.5 nmol.
For the compound `C1=C\CCCCCC[n+]2cccc(c2)CCCCCC/C=C\CCCCCC[n+]2cccc(c2)CCCCCC/1`, the IC50 in [3] was found to be 2400 nM.
